Patent publication US12697330B2, “Therapeutic methods using vadadustat” (Akebia Therapeutics, Inc., priority 2021, dated 2026)

Assays:
Type in all cases: in vivo, human
[1] = system: total iron binding capacity (TIBC); experiment: Phase 2a clinical trials in stage 3, 4, or 5 CKD patients: iron-related parameters
healthy adults = experiment: Drug interaction study with co-administration of vadadustat in healthy adults; settings: with probenecid, an inhibitor of UGT and OAT1/3 transporters
From the text: Sulfasalazine. Other Breast Cancer Resistance Protein Substrates. and Probenecid. Exposures to sulfasalazine (moderately) and mesalamine (mildly) were increased with co-administration of vadadustat based on a study in healthy adults. In subjects taking vadadustat, sulfasalazine and other clinically relevant substrates of the breast cancer resistance protein (BCRP) transporter (e.g., sulfasalazine, methotrexate, mitoxantrone, imatinib, irinotecan, lapatinib, topotecan, tenofovir, glecaprevir, pibrentasvir, or sofosbuvir), caution should be taken during the study. Probenecid, an inhibitor of UDP-glucuronosyltransferase (UGT) and the organic anion transporter (OAT)1/3 transporters, increased vadadustat area under the curve and is prohibited during the study.

[2] = Phase 1b study: pharmacokinetics of vadadustat and its metabolites in plasma of hemodialysis subjects with anemia associated with CKD
Experimental: The primary objective of the study was to assess the pharmacokinetics (PK) of vadadustat 600, 750, and 900 mg daily, and IV ESA (darbepoetin alfa or epoetin alfa) in hemodialysis subjects with anemia associated with CKD. Additional objectives included to evaluate the pharmacodynamics (PD) of vadadustat 600, 750, and 900 mg daily, and IV ESA (darbepoetin alfa or epoetin alfa) in hemodialysis subjects with anemia associated with CKD and to assess the safety and tolerability of vadadustat 600, 750, and 900 mg daily and IV ESA (darbepoetin alfa or epoetin alfa) in hemodialysis subjects with anemia associated with CKD.
Study Design. This was a Phase 1b, randomized, open-label study to evaluate the PK, PD, safety, and tolerability of vadadustat 600, 750, or 900 mg daily, or ESA (darbepoetin alfa or epoetin alfa) in hemodialysis subjects with anemia associated with CKD. The study included a 28-day Screening and Randomization period, a 10-day Treatment Period, and a 30-day Safety Follow up Period after the last dose of study drug (vadadustat or ESA). For subjects randomized to vadadustat, study duration also included an ESA washout period of a minimum of 5 days for epoetin alfa or 9 days for darbepoetin alfa or 9-day ESA Washout period prior to dosing on Day 1.
A total of 46 subjects were enrolled in the study. Written informed consent were obtained before any screening procedures were performed. Subjects were screened within 28 days prior to randomization. Eligible subjects were randomized in a 2:2:2:1 ratio to 1 of 4 treatment groups (600, 750, or 900 mg vadadustat QD, or ESA. Randomized subjects began their 10-day Treatment Period within 36 days of initiating screening.
Eligible subjects were randomly assigned in a 2:2:2:1 ratio to 1 of 4 treatment groups: Group 1—vadadustat 600 mg once daily (QD); Group 2—vadadustat 750 mg QD; Group 3—vadadustat 900 QD; and Group 4—IV ESA. Randomization was stratified by the mean weekly ESA dose calculated over a period of 8 weeks prior to the randomization visit. For darbepoetin, the groups were divided into low dose darbepoetin alfa group (<0.5 μg/kg/week) and high dose darbepoetin alfa group (>0.5 to <1.5 μg/kg/week). For epoetin, the groups were divided into low dose epoetin alfa group (≤90 U/kg/week) and high dose epoetin alfa group (>90 to <300 U/kg/week).
Subjects began dosing on Day 1 and took vadadustat at approximately the same time each day for a total of 10 days. On Day 1 and Day 8, subjects took vadadustat after all predose procedures are completed and within 30 minutes prior to the start of dialysis so that the 1-hour post dose blood sample for PK and PD was collected during dialysis. Vadadustat could be taken with or without food. Subjects were instructed to make every effort to take the drug consistently, either with or without food. Subjects were instructed to swallow the tablets whole with water.
PK and EPO Sample. For each vadadustat treatment group, blood samples for vadadustat PK (and its metabolites) and EPO were collected at the following time points: Day 1: predose, and at 1, 2, 3, 4, 5, 8, and 11 hours post dose; Day 2: 24 hours (−2 hours) post Day 1 dose; Day 6: blood sample for EPO analysis only was collected predose on Day 6; Day 8: predose, and at 1, 2, 3, 4, 5, 8, 11 hours post dose, Day 10 or EOT: predose. For the ESA treatment group, blood samples for analysis of EPO were collected at the following time points: Day 1: predose, and at 0.25, 1, 2, 3, 4, 5, 8, and 11 hours post dose; Day 2: 24 hours (−2 hours) post Day 1 dose.
Primary Endpoints. […]

[3] = Phase 1b study: safety and tolerability
From the text: All subjects were followed for safety for 30 days after the Day 10 visitor 30 days after their last dose of study drug (vadadustat or ESA) if they discontinued study drug treatment early. Subjects returned to the clinic for safety assessments 2-5 days after completing Day 10/EOT and concluded the study with a follow-up telephone call to assess for AEs and concomitant medications 30 days after their last dose of study drug.
Safety Endpoints. Safety could be evaluated by: adverse events (AE), electrocardiogram (ECG), vital signs measurements, and clinical laboratory values.
Safety Population was defined as all subjects who received at least one dose of study drug. This population was analyzed based upon the actual treatment received.

O=C(O)CNC(=O)c1ncc(-c2cccc(Cl)c2)cc1O [Compound 1, {[5-(3-chlorophenyl)-3-hydroxypyridine-2-carbonyl]amino}acetic acid]
TIBC versus dose [1]: dose-related increase | serum iron levels with the increase in TIBC [1]: not associated with an increase in serum iron levels | transferrin saturation (TSAT) [1]: decrease | total iron binding capacity (TIBC) levels ([1]; 6 weeks post administration, compared to placebo treated patients): increase

O=C(O)CNC(=O)c1ncc(-c2cccc(Cl)c2)cc1O [vadadustat, {[5-(3-chlorophenyl)-3-hydroxypyridine-2-carbonyl]amino}acetic acid]
vadadustat area under the curve (healthy adults): increased | vadadustat exposure (AUC0-24 and Cmax) versus dose ([2]; Day 1 and Day 8): dose-dependent increase | exposure for vadadustat, as measured by AUC0-24, versus dose ([2]; Day 1 dosing, 600 to 750 to 900 mg): increased with increasing dose | Mean apparent total body clearance (CL/F) values across doses ([2]; Day 8, 600, 750, 900 mg): similar | Tmax ([2]; human, plasma, oral, 600, 750, and 900 mg groups, Day 1 and Day 8, during the dialysis, read-out: median Tmax of vadadustat): 2 to 3 h | accumulation versus dose ([2]; most pronounced in the 900 mg vadadustat treatment group): dose-dependent increase in accumulation | incidence of drug-related Treatment Emergent Adverse Events (TEAEs) ([3]; 3 vadadustat treatment arms): infrequent and similar across all 3 treatment arms | safety concerns ([3]; 600, 750, 900 mg QD, 10 days): No major safety concerns were observed | tolerability ([3]; oral administration, 600, 750, 900 mg QD, 10 days): generally well tolerated
